# Measured values as given in ChEMBL document CHEMBL4616612, “Synthesis and inhibitory effect of cis-guggulsterone on lipopolysaccharide-induced production of nitric oxide in macrophages” (Bioorg Med Chem Lett, 2020).
# The source made the active and inactive calls. The rule behind the calls is not given here.
# How the values were obtained:
# RAW264.7 [1] = assay: Anti-inflammatory activity in mouse RAW264.7 cells assessed as inhibition of LPS-induced NO production preincubated for 1 hr followed by LPS addition and measured after 24 hrs; type: functional, cell-based
# [2] = Cytotoxicity against mouse RAW264 cells assessed as reduction in cell viability at 25 uM incubated for 24 hrs by MTT assay; type: cell-based
# RAW264.7 [3] = assay: Anti-inflammatory activity in mouse RAW264.7 cells assessed as reduction in LPS-induced iNOS protein level at 6.25 to 12.5 microM by Western blot analysis; type: functional, cell-based
# RAW264.7 [4] = assay: Anti-inflammatory activity in mouse RAW264.7 cells assessed as reduction in LPS-induced COX2 protein level at 6.25 to 12.5 microM by Western blot analysis; type: functional, cell-based
# RAW264.7 [5] = assay: Anti-inflammatory activity in mouse RAW264.7 cells assessed as reduction in LPS-induced IL6 level preincubated for 2 hrs followed by LPS addition and measured after 18 hrs by ELISA; type: functional, cell-based
# RAW264.7 [6] = assay: Anti-inflammatory activity in mouse RAW264.7 cells assessed as reduction in LPS-induced TNFalpha level preincubated for 2 hrs followed by LPS addition and measured after 18 hrs by ELISA; type: functional, cell-based
# [7] = Cytotoxicity against mouse RAW264 cells assessed as reduction in cell viability up to 25 uM incubated for 24 hrs by MTT assay; type: cell-based
Structure (SMILES),inhibition (RAW264.7 [1]),Activity [2],Activity (RAW264.7 [1]),Activity (RAW264.7 [3]),Activity (RAW264.7 [4]),Activity (RAW264.7 [5]),Activity (RAW264.7 [6]),Activity [7]
COC(=O)[C@@H](N)CCCNC(=N)N[N+](=O)[O-],Active,,,,,,,
C/C=C1/C(=O)C[C@H]2[C@@H]3CCC4=CC(=O)CC[C@]4(C)[C@H]3CC[C@]12C [E-GUGGULSTERONE],,Toxic,Dose-dependent effect,Active,Active,Dose-dependent effect,Dose-dependent effect,
C/C=C1\C(=O)C[C@H]2[C@@H]3CCC4=CC(=O)CC[C@]4(C)[C@H]3CC[C@]12C [GUGGULSTERONE],,,Dose-dependent effect,,,,,Non-Toxic
